Where two headings read alike, the source gives them in different places.
Legend:
[1] = target: T1, human D2L dopamine receptors (Homo sapiens, UniProt P14416); assay: hD2L receptor radioligand binding ([3H]spiperone); settings: pKi reported on a scale of 1 through 5; read-out: D2L (pKi) (converted)
T1 construct: expressed in transfected cells; host or cells: insect Sf9 cells (membranes)
Experimental: (§1) Consistent with standard competition radioligand binding assays, the methodology was based on displacement of radioligand from tissues (or cell lines) bearing the receptor of interest (Cheng, Y. and Prusoff, W. H. (1973). Biochem. Pharmacol. 22, 3099-3108). The measurements were based on the binding of a single concentration of radiolabeled ligand in the presence of various concentrations of unlabeled ligand.
(§2) Tissues (or cellular plasma membrane fractions) were incubated in the presence of radioligand at equilibrium and in the presence of a range of concentrations of the test compounds (which were non-radiolabeled), and the displaced radioligand was separated from the membranes by filtration. Nonspecific binding was assessed by measuring displacement of the radioligand in the presence of a compound known to block binding of the radioligand to the receptor. Finally, the concentration-response relationship for radioligand displacement (corrected for non-specific binding) was used to assess binding of the test compound to the receptor.

[2] = target: T2, human D2s dopamine receptors (Homo sapiens, UniProt P14416); assay: hD2S receptor radioligand binding ([3H]spiperone); settings: pKi reported on a scale of 1 through 5
T2 construct: expressed in transfected cells; host or cells: Chinese hamster ovary cells (membranes)
T2 sequence (P14416 1-414 isoform P14416-2): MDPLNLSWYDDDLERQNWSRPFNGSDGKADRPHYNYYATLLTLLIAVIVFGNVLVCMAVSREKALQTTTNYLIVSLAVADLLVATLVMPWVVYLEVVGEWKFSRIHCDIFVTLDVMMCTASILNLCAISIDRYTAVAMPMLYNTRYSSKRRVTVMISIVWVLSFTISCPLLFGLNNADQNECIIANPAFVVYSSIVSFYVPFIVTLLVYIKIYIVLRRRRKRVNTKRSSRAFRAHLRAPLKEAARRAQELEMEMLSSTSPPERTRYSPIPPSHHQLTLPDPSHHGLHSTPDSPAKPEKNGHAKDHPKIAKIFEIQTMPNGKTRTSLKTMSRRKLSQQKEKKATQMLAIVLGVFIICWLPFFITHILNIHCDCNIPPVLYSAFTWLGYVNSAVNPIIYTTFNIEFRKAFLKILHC
Experimental: as §1, §2

[3] = target: T3, 5-HT2A receptor (Rattus norvegicus, UniProt P14842); assay: cell-based
T3 construct: Eight strips of tissue (0.5 cm long) were cut. and were mounted in 10 ml organ baths; tissue Charles River Laboratories; host or cells: rat aorta strips, endothelium removed
T3 sequence (P14842 whole entry): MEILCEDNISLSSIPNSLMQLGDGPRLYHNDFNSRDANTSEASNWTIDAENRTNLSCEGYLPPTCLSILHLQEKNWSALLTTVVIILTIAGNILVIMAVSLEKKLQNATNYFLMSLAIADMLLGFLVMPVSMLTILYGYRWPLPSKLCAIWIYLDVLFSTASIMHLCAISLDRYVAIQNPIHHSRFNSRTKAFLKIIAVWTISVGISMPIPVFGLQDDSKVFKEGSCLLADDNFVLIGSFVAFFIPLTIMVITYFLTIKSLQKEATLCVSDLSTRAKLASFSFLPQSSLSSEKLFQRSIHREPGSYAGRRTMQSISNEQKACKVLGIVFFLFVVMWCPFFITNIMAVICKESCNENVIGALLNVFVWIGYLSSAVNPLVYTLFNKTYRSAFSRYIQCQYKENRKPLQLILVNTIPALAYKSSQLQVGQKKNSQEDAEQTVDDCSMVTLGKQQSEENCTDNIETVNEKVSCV
Experimental: The rat aorta (approximately 7 cm) was isolated and removed from the animal (male Sprague Dawley rat, Charles River Laboratories, Hollister, Calif.). The endothelium was removed mechanically. Eight strips of tissue (0.5 cm long) were cut. and were mounted in 10 ml organ baths kept at 37° C. with Krebs solution (composition in mM: NaCl (118.2), KCl (4.6), CaCl2 (2.5), MgSO4 (1.2), KH2PO4 (1.2), NaHCO3 (24.8) and dextrose (10.0)) that was constantly aerated with carbogen gas (95% O2/5% CO2) to obtain a pH of 7.4. The tissues were subjected to a resting tension of 2 g (3 times, 15 minutes apart, equilibrated in Krebs solution). The tissues were then washed 15 minutes later. Ten minutes later, the tissues were then exposed to 0.1 μM phenylephrine. At the maximal effect, 1 μM acetylcholine was added to confirm the absence of endothelium and then washed twice, 2 minutes apart.
Contractions were recorded as changes in tension from baseline and expressed as a percentage of the maximum response of the agonist (5-HT) concentration-effect curve. Agonist concentration-response curves were fitted using a nonlinear iterative fitting program (GraphPad Prism) using the relationship of Parker and Waud (Parker, R. B. and Waud, D. R. (1971). Pharmacological estimation of drug-receptor dissociation constants. Statistical evaluation. I. Agonists. J. Pharmacol. Exp. Ther., 177, 1-12). Agonist potency was expressed as EC50 (molar concentration of agonist producing 50% of the maximum response). Concentration-ratios (CRs) were determined from EC50 values in the presence and absence of antagonist and antagonist affinity estimates (pKB and pA2 values) were determined. All data are expressed as mean±s.e. mean.

[4] = target: T4, human 5HT2C receptors (Homo sapiens, UniProt P28335); assay: h5-HT2C receptor radioligand binding ([3H]Mesulergine); settings: pKi reported on a scale of 1 through 5
T4 construct: expressed in transfected cells; host or cells: human embryo kidney cells (membranes)
T4 sequence (P28335 33-458): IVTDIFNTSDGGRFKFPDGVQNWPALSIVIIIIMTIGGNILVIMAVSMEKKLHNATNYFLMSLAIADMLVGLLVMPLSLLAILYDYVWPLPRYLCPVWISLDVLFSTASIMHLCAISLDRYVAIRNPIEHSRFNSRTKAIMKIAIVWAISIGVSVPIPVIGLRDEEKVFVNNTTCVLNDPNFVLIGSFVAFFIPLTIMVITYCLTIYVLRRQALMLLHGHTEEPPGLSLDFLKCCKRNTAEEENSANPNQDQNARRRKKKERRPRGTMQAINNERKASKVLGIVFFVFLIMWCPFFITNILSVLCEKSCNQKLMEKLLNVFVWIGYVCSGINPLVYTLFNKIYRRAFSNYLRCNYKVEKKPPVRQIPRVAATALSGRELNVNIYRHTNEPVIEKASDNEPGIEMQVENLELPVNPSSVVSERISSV
Experimental: The measurements were based on the binding of a single concentration of radiolabeled ligand in the presence of various concentrations of unlabeled ligand.
as §2

[5] = target: T5, human 5HT1A receptors (Homo sapiens, UniProt P08908); assay: h5-HT1A receptor radioligand binding ([3H]8OH-DPAT); settings: pKi reported on a scale of 1 through 5
T5 construct: expressed in transfected cells; host or cells: Chinese hamster ovary cells (membranes)
T5 sequence (P08908 1-422): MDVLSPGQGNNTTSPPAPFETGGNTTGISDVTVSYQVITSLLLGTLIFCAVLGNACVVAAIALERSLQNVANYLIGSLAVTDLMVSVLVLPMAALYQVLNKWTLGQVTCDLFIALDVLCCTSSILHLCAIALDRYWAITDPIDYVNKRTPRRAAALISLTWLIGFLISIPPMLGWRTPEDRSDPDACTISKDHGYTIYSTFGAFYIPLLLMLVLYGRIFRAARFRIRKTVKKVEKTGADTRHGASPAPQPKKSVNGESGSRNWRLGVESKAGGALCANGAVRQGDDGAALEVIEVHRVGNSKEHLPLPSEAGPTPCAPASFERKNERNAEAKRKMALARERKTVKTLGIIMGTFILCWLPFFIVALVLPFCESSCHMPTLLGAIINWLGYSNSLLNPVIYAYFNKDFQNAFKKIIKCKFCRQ
Experimental: as §1, §2

[6] = target: T6, human H1 receptors (Homo sapiens, UniProt P35367); assay: hH1 receptor radioligand binding ([3H]Pyrilamine); settings: pKi reported on a scale of 1 through 5
T6 construct: expressed in transfected cells; host or cells: Chinese hamster ovary cells (membranes)
T6 sequence (P35367 whole entry): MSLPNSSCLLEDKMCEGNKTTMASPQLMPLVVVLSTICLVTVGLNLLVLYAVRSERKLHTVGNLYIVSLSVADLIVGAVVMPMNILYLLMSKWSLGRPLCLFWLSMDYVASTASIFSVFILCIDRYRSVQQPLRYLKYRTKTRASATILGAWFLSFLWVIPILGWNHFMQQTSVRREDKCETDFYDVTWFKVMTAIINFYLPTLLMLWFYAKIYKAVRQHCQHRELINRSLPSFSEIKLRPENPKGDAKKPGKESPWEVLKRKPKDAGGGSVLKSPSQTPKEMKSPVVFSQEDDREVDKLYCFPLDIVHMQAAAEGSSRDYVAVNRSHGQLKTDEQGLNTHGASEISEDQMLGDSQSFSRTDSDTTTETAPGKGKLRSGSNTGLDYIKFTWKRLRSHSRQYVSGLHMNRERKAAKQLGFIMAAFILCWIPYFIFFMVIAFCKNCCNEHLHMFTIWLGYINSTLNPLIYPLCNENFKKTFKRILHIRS
Experimental: as §1, §2

[7] = target: T7, human M3 receptors (Homo sapiens, UniProt P20309); assay: hM3 receptor radioligand binding ([3H]NMS)
T7 construct: expressed in transfected cells; host or cells: Chinese hamster ovary cells (membranes)
T7 sequence (P20309 whole entry): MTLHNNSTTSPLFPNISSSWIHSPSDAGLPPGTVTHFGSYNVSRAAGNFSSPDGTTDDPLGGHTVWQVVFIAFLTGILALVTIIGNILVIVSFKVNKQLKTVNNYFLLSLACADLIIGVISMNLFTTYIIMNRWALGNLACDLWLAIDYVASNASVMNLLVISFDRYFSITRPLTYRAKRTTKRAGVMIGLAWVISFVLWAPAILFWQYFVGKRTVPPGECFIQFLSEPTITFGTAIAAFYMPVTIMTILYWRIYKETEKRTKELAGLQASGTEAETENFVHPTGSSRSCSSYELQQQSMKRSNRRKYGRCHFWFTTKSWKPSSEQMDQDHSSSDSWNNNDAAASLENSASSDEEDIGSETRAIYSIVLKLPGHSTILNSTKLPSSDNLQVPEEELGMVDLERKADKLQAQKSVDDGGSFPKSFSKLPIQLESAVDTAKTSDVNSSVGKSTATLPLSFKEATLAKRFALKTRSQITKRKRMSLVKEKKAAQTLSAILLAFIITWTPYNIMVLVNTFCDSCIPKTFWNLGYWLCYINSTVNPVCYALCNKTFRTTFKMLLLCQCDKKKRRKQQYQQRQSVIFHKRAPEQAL
Experimental: as §1, §2

[8] = target: T8, human M1 receptors (Homo sapiens, UniProt P11229); assay: hM1 receptor radioligand binding ([3H]NMS); settings: pKi reported on a scale of 1 through 5
T8 construct: expressed in transfected cells; host or cells: Chinese hamster ovary cells (membranes)
T8 sequence (P11229 1-460): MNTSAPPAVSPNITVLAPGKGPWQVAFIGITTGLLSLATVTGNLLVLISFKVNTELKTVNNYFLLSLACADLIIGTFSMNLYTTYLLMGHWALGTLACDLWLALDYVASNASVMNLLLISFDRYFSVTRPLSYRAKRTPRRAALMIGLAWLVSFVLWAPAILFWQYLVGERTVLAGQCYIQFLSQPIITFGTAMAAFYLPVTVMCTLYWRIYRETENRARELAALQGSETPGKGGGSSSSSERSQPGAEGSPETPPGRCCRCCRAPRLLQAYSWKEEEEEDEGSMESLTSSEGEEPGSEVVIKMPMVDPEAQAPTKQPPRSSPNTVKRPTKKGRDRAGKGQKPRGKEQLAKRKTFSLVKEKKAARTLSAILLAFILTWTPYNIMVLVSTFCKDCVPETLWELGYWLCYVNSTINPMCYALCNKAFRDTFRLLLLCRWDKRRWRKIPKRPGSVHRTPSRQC
Experimental: as §1, §2

[9] = target: T9, human 5HT7 receptors (Homo sapiens, UniProt P34969); assay: h5-HT7 receptor radioligand binding ([3H]5-CT)
T9 construct: expressed in transfected cells; host or cells: Chinese hamster ovary cells (membranes)
T9 sequence (P34969 whole entry): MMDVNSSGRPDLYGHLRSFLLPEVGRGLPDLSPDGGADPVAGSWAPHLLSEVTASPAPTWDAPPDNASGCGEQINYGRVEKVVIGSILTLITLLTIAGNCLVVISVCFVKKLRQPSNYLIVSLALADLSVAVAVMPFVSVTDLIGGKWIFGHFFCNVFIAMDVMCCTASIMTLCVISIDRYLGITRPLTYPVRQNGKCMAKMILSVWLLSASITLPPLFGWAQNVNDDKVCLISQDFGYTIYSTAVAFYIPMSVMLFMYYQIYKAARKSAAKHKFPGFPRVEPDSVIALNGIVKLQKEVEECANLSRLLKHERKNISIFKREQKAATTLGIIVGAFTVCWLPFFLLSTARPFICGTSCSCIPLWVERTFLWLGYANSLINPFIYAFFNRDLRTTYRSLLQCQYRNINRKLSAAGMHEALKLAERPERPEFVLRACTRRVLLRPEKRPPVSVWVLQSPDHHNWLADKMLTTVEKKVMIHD
Experimental: as §1, §2

[10] = read-out: 5HT2A (pKb) (converted)
[11] = pKi reported on a scale of 1 through 5, read-out: M3 (pKi) (converted)

T1 sequence (P14416 whole entry): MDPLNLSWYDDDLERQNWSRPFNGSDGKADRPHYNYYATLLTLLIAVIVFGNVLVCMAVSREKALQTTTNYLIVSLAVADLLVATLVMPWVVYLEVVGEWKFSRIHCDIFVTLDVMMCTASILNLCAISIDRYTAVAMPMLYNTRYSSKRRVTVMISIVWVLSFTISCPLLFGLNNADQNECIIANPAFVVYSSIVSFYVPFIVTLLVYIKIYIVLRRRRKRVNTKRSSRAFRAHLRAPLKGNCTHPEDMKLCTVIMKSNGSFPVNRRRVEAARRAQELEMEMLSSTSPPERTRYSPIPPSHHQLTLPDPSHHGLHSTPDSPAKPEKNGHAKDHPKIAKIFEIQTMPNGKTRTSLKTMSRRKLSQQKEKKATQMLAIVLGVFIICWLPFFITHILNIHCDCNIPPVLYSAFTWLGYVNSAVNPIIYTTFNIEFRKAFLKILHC

Structure (SMILES)	Ki [1] [µM]	Ki [2] [µM]	Kb [3, 10] [nM]	Ki [4] [nM]	Ki [5] [nM]	Ki [6] [nM]	Ki [7, 11] [µM]	Ki [8] [µM]	Ki [9] [µM]	Kb [3] [nM]	Ki [7] [µM]	Ki ([9]; pKi reported on a scale of 1 through 5, read-out: 5HT7 (pKi) (converted)) [µM]	Kb ([3]; pKb reported on a scale of 1 through 5, read-out: 5HT2A (pKb) (converted)) [nM]
O=C(O)C[C@@H]1CN(C2=Nc3cc(Cl)ccc3Oc3ccccc32)CCN1 [AB, (R,E)-2-(4-(8-chlorodibenzo[b,f][1,4]oxazepin-11-yl)piperazin-2-yl)acetic acid]	> 10	> 10	31.6 to 97.7	100 to 977	> 10000	100 to 977	> 10						
O=C(O)CC1CN(C2=Nc3cc(Cl)ccc3Oc3ccccc32)CCN1 (stereo not drawn) [Compound E, (E)-2-(4-(8-chlorodibenzo[b,f][1,4]oxazepin-11-yl)piperazin-2-yl)acetic acid]	> 10	> 10	31.6 to 97.7	100 to 977	1000 to 9770	100 to 977	> 10	> 10					
COC(=O)C[C@@H]1CN(C2=Nc3cc(Cl)ccc3Oc3ccccc32)CCN1 [Compound P, (R,E)-methyl 2-(4-(8-chlorodibenzo[b,f][1,4]oxazepin-11-yl)piperazin-2-yl)acetate]	2.51 to 9.77	2.51 to 9.77	31.6 to 97.7	100 to 977	1000 to 9770	100 to 977	> 10						
CCOC(=O)CC1CN(C2=Nc3cc(Cl)ccc3Oc3ccccc32)CCN1C (stereo not drawn) [DN, (E)-ethyl 2-(4-(8-chlorodibenzo[b,f][1,4]oxazepin-11-yl)-1-methylpiperazin-2-yl)acetate]	2.51 to 9.77	2.51 to 9.77	31.6 to 97.7	100 to 977		100 to 977	> 10	2.51 to 4.9					
CN1CCN(C2=Nc3cc(Cl)ccc3Oc3ccccc32)C[C@@H]1CC(=O)O[C@@H]1CN2CCC1CC2 [DS, (S)-quinuclidin-3-yl 2-((S)-4-((E)-8-chlorodibenzo[b,f][1,4]oxazepin-11-yl)-1-methylpiperazin-2-yl)acetate]		> 10		1000 to 9770	1000 to 9770				> 10	> 100	> 10		
CN1CCN(C2=Nc3cc(Cl)ccc3Oc3ccccc32)C[C@@H]1CC(=O)OC1CCOCC1 [DZ, (S,E)-tetrahydro-2H-pyran-4-yl 2-(4-(8-chlorodibenzo[b,f][1,4]oxazepin-11-yl)-1-methylpiperazin-2-yl)acetate]		2.51 to 9.77	31.6 to 97.7	100 to 977	100 to 977		> 10					> 10	
CN1CCN(C2=Nc3cc(Cl)ccc3Oc3ccccc32)C[C@@H]1CC(=O)N(CC(F)(F)F)CC(F)(F)F [EW, (S,E)-2-(4-(8-chlorodibenzo[b,f][1,4]oxazepin-11-yl)-1-methylpiperazin-2-yl)-N,N-bis(2,2,2-trifluoroethyl)acetamide]		> 10		1000 to 9770	1000 to 9770	100 to 977		5.01 to 9.77					> 100
CCOC(=O)CC1CN(C2=Nc3ccc(Cl)cc3Oc3ccccc32)CCN1 (stereo not drawn) [H, (E)-ethyl 2-(4-(7-chlorodibenzo[b,f][1,4]oxazepin-11-yl)piperazin-2-yl)acetate]	0.631 to 2.45	0.631 to 2.45	31.6 to 97.7	10 to 97.7		100 to 977	> 10	> 10					
COC(=O)CC1CN(C2=Nc3cc(Cl)ccc3Oc3ccccc32)CCN1 (stereo not drawn) [I, (E)-methyl 2-(4-(8-chlorodibenzo[b,f][1,4]oxazepin-11-yl)piperazin-2-yl)acetate]	2.51 to 9.77	2.51 to 9.77	10 to 30.9	10 to 97.7	100 to 977	100 to 977	> 10	5.01 to 9.77					
CCOC(=O)C[C@@H]1CN(C2=Nc3cc(Cl)ccc3Oc3ccccc32)CCN1 [O, (R,E)-ethyl 2-(4-(8-chlorodibenzo[b,f][1,4]oxazepin-11-yl)piperazin-2-yl)acetate]	2.51 to 9.77	2.51 to 9.77	31.6 to 97.7	10 to 97.7	100 to 977	100 to 977	> 10						
